Article PMC6019444, “Activation of the Immune-Metabolic Receptor GPR84 Enhances Inflammation and Phagocytosis in Macrophages” (Frontiers in Immunology, 2018)

Target: GPR84 (Mus musculus, UniProt Q8CIM5)
Assay: real-time cell impedance in LPS-primed mouse BMDMs, WT versus GPR84-/-
Type: cell-based

Chain of GPR84 (Q8CIM5 whole entry): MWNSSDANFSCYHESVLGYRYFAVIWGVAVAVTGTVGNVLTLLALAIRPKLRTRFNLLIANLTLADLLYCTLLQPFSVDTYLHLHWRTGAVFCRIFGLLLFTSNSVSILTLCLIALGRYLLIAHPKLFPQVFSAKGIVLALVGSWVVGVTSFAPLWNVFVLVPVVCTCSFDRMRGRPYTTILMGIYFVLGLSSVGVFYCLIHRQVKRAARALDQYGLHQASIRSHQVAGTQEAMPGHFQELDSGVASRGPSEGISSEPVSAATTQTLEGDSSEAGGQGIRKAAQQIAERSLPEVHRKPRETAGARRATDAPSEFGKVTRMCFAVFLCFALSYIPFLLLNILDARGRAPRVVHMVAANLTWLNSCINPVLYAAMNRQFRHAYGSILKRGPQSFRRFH

Which “real-time cell impedance in LPS-primed mouse BMDMs, WT versus GPR84-/-” value does the source give for `CCCCCCCCNc1cc(=O)[nH]c(=O)[nH]1` [6-OAU, 6-(octylamino) pyrimidine-2,4(1H,3H)-dione] here?
The value was “no response was observed when adding any dose of 6-OAU to GPR84^−/− cells”.
